Reference: PMC7188713, “Phase 1 study of napabucasin, a cancer stemness inhibitor, in patients with advanced solid tumors” (Cancer Chemotherapy and Pharmacology, 2020)

How the values were obtained:
[1] = Phase 1 dose-escalation study: safety (DLT, MTD, adverse events); format: in vivo
Procedure: This Phase 1, open-label, dose-escalation study (3 + 3 design) was carried out at the National Cancer Center Hospital East in Japan. Patients received napabucasin 240 mg twice daily (BID) (Cohort 1), 480 mg BID (Cohort 2), or 720 mg BID (Cohort 3). Day 1 was defined as the day the first dose of napabucasin was administered. All patients were hospitalized until PK assessments were completed (Day 30), though patients were permitted to go/stay out during this period at the discretion of the investigators. […] Dose escalation would continue if no DLTs were observed, and if one of the first three patients experienced a DLT within the first cycle an additional three patients would be enrolled. Dose escalation would be halted if ≥ 2 of the first three patients (or ≥ 2 of the six patients, if additional patients were enrolled) experienced a DLT. If ≤ 1 of the patients in Cohort 3 (highest dose) experienced an observable DLT, then three additional patients were enrolled and would receive the highest dose level of napabucasin, and DLTs would be evaluated in the additional patients. Study treatment was given in 28-day cycles until disease progression or intolerable toxicity due to AEs.
Safety endpoints included AEs, drug-related AEs, vital signs, body weight, laboratory values, and 12-lead ECG. All details of AEs were recorded, including the severity of the event. The severity of AEs was classified according to CTCAE v4.0-JCOG. Napabucasin dose could be reduced or interrupted due to AEs if considered necessary by the investigators, and later reinstated if the AE recovered to Grade 2 or lower. It could also be permanently discontinued in patients who met the discontinuation criteria, which included AEs that rendered trial continuation difficult, aggravation of underlying disease, and withdrawal of consent. Body weight was measured at baseline and Day 29 of Cycle 2, and every 28 days in subsequent cycles. Vital signs were measured at baseline, Days 1, 2, 8, 15, and 22 of Cycle 1, Days 29, 36, 43, and 50 of Cycle 2, and every 28 days in subsequent cycles. 12-lead ECG was measured at baseline and Day 57 in Cycle 3, and every 28 days in subsequent cycles. Laboratory values were recorded at baseline, Days 8, 15, and 22 in Cycle 1, Days 29, 36, 43, and 50 in Cycle 2, and every 28 days in subsequent cycles.
The safety and antitumor activity (intention-to-treat [ITT]) analysis populations included all patients that received at least one dose of napabucasin. The DLT analysis population included all patients that received at least one dose of napabucasin with at least 80% compliance ([number of capsules actually ingested/number of capsules that should have been ingested per dose […]] × 100) during the DLT evaluation period, and those patients who experienced DLT during the evaluation period regardless of compliance. The PK population included all patients that received at least one dose of napabucasin and had plasma napabucasin concentration data for at least one-time point after the first dose of napabucasin.

colorectal cancer = tested on: colorectal cancer; design: method as in PMID 29397354; settings: cited from earlier work
[2] = all grades, all cohorts, 14 patients

CC(=O)c1cc2c(o1)C(=O)c1ccccc1C2=O [napabucasin]
MTD (maximum tolerated dose) ([1]; 28-day cycles, BID dosing): 1440 mg/day | Any drug-related adverse event, Grade 1 ([1]; Cohort 1, 480 mg/day, n = 3): 1 (33.3) Number of patients (%) | Drug-related abdominal pain lower (Grade 1) ([1]; Cohort 1, 480 mg/day, n = 3): 0 (0.0) Number of patients (%) | Drug-related anorexia, Grade 1 ([1]; Cohort 1, 480 mg/day, n = 3): 1 (33.3) Number of patients (%) | Drug-related anorexia, Grade 2 ([1]; Cohort 1, 480 mg/day, n = 3): 0 (0.0) Number of patients (%) | Drug-related anorexia, Grade 3 ([1]; Cohort 1, 480 mg/day, n = 3): 0 (0.0) Number of patients (%) | Drug-related diarrhea, Grade 1 ([1]; Cohort 1, 480 mg/day, n = 3): 1 (33.3) Number of patients (%) | Drug-related nausea (Grade 1) ([1]; Cohort 1, 480 mg/day, n = 3): 0 (0.0) Number of patients (%) | Drug-related rash (Grade 1) ([1]; Cohort 1, 480 mg/day, n = 3): 0 (0.0) Number of patients (%) | Drug-related urinary tract infection (Grade 1) ([1]; Cohort 1, 480 mg/day, n = 3): 0 (0.0) Number of patients (%) | Any drug-related adverse event, Grade 1 ([1]; Cohort 2, 960 mg/day, n = 4): 4 (100) Number of patients (%) | Drug-related abdominal pain lower (Grade 1) ([1]; Cohort 2, 960 mg/day, n = 4): 1 (25.0) Number of patients (%) | Drug-related anorexia, Grade 1 ([1]; Cohort 2, 960 mg/day, n = 4): 0 (0.0) Number of patients (%) | Drug-related anorexia, Grade 2 ([1]; Cohort 2, 960 mg/day, n = 4): 0 (0.0) Number of patients (%) | Drug-related anorexia, Grade 3 ([1]; Cohort 2, 960 mg/day, n = 4): 0 (0.0) Number of patients (%) | Drug-related diarrhea, Grade 1 ([1]; Cohort 2, 960 mg/day, n = 4): 3 (75.0) Number of patients (%) | Drug-related nausea (Grade 1) ([1]; Cohort 2, 960 mg/day, n = 4): 0 (0.0) Number of patients (%) | Drug-related rash (Grade 1) ([1]; Cohort 2, 960 mg/day, n = 4): 1 (25.0) Number of patients (%) | Drug-related urinary tract infection (Grade 1) ([1]; Cohort 2, 960 mg/day, n = 4): 1 (25.0) Number of patients (%) | Any drug-related adverse event, Grade 1 ([1]; Cohort 3, 1440 mg/day, n = 7): 4 (57.1) Number of patients (%) | Any drug-related adverse event, Grade 2 ([1]; Cohort 3, 1440 mg/day, n = 7): 1 (14.3) Number of patients (%) | Any drug-related adverse event, Grade 3 ([1]; Cohort 3, 1440 mg/day, n = 7): 1 (14.3) Number of patients (%) | Drug-related abdominal pain lower (Grade 1) ([1]; Cohort 3, 1440 mg/day, n = 7): 0 (0.0) Number of patients (%) | Drug-related anorexia, Grade 1 ([1]; Cohort 3, 1440 mg/day, n = 7): 0 (0.0) Number of patients (%) | Drug-related anorexia, Grade 2 ([1]; Cohort 3, 1440 mg/day, n = 7): 1 (14.3) Number of patients (%) | Drug-related anorexia, Grade 3 ([1]; Cohort 3, 1440 mg/day, n = 7): 1 (14.3) Number of patients (%) | Drug-related diarrhea, Grade 1 ([1]; Cohort 3, 1440 mg/day, n = 7): 4 (57.1) Number of patients (%) | Drug-related diarrhea, Grade 3 ([1]; Cohort 3, 1440 mg/day, n = 7): 1 (14.3) Number of patients (%) | Drug-related nausea (Grade 1) ([1]; Cohort 3, 1440 mg/day, n = 7): 4 (57.1) Number of patients (%) | Drug-related rash (Grade 1) ([1]; Cohort 3, 1440 mg/day, n = 7): 0 (0.0) Number of patients (%) | Drug-related urinary tract infection (Grade 1) ([1]; Cohort 3, 1440 mg/day, n = 7): 0 (0.0) Number of patients (%) | Initial onset of nausea, most frequently observed ([1]; after the first dose): 1 to 14 days | Drug-related nausea, number of patients ([1]; all cohorts, 14 patients): 4 n | Drug-related vomiting, number of patients ([1]; all cohorts, 14 patients): 3 n | Drug-related anorexia, number of patients [1, 2]: 3 n | Drug-related diarrhea, number of patients [1, 2]: 9 n | Any drug-related adverse event, Grade 1 ([1]; human, in vivo): 9 (64.3) Number of patients (%) | Any drug-related adverse event, Grade 2 ([1]; human, in vivo): 1 (7.1) Number of patients (%) | Any drug-related adverse event, Grade 3 ([1]; human, in vivo): 1 (7.1) Number of patients (%) | Drug-related abdominal pain lower (Grade 1) ([1]; human, in vivo): 1 (7.1) Number of patients (%) | Drug-related anorexia, Grade 1 ([1]; human, in vivo): 1 (7.1) Number of patients (%) | Drug-related anorexia, Grade 2 ([1]; human, in vivo): 1 (7.1) Number of patients (%) | Drug-related anorexia, Grade 3 ([1]; human, in vivo): 1 (7.1) Number of patients (%) | Drug-related diarrhea, Grade 1 ([1]; human, in vivo): 8 (57.1) Number of patients (%) | Drug-related diarrhea, Grade 3 ([1]; human, in vivo): 1 (7.1) Number of patients (%) | Drug-related nausea (Grade 1) ([1]; human, in vivo): 4 (28.6) Number of patients (%) | Drug-related rash (Grade 1) ([1]; human, in vivo): 1 (7.1) Number of patients (%) | Drug-related urinary tract infection (Grade 1) ([1]; human, in vivo): 1 (7.1) Number of patients (%) | Drug-related vomiting (Grade 1) ([1]; human, in vivo): 3 (21.4) Number of patients (%) | Initial onset of diarrhea and vomiting, most frequently observed ([1]; human, in vivo): 1 to 7 days | Patients who experienced drug-related AEs ([1]; human, in vivo): 11 patients | Patients with AEs reported ([1]; human, in vivo): 14 patients | Dose reductions due to AEs ([1]; in vivo): no dose reductions due to AEs | Patients with dose interruptions due to AEs ([1]; in vivo): five | Deaths due to AEs ([1]; n = 14): No patients died due to AEs | Patients who achieved SD (colorectal cancer): 12%
